Assay results taken from patent US20130123460A1, “PEPTIDE FOR IMPROVING BIOSTABILITY OF BIOACTIVE SUBSTANCE, AND BIOACTIVE SUBSTANCE HAVING IMPROVED BIOSTABILITY” (priority 2010, published 2013).
Entries after “also recorded” stand apart in the source; their conditions may differ. Like-named read-outs stand apart in the source and are kept apart here. Bridges are numbered along the chain shown (N, C = ends). Where no end group is shown, it is not given here.

Experiments:
[1] = Plasma stability of amylin complex (remaining rate in rat plasma); assay type: in vitro ADME, SD rats; conditions: for remaining at 0.5 h, 0.5 μmol/L / remaining at 2 h, 0.5 μmol/L / remaining at 8 h, 0.5 μmol/L: SD
Experimental: Evaluation was performed in a manner in which after the treatment of the amylin or amylin peptide complex with plasma for a pre-determined time, an amount of change of the amylin peptide (complex) undecomposed was measured by an HPLC/MS.

[2] = biological target: T1, endogenous GLP-1 receptor (Mus musculus, UniProt O35659); assay: Insulin secretion capacity of GLP-1 peptide complex in MIN 6 cells; assay type: cell-based; conditions: for Insulin secretion capacity (% of control): MIN 6 cells, 1000 pM, 15 mM glucose, control = native GLP-1 at 1000 pM;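 on all read-outs here: insulin released into the supernatant of MIN 6 cultures quantified by ELISA, absorbance read at 450 nm with 620 nm reference after substrate addition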
T1 construct: expressing an endogenous GLP-1 receptor; endogenous in cells; host or cells: MIN 6 mouse insulinoma cells (obtained from a person)
T1 sequence (O35659 22-463): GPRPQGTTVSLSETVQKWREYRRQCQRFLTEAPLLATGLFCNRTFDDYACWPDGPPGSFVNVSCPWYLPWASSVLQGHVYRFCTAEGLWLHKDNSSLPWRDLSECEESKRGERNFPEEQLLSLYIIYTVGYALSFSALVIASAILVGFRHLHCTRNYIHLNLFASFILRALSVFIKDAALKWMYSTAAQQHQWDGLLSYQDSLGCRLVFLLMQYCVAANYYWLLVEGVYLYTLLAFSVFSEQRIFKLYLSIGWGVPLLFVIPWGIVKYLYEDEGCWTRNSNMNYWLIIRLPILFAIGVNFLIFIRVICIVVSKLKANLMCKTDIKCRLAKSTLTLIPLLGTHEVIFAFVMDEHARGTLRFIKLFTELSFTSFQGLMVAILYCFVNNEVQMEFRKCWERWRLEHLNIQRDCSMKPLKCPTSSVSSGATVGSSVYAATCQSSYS
Experimental: MIN 6 was seeded on a multi-plate, which was cultivated at 37° C. for 48 hours. After that, the culture was washed twice with a KRH buffer solution including 2 mM glucose solution (including NaCl 119 mM, KCl 4.74 mM, CaCl2 2.54 mM, MgCl2 1.19 mM, KH2PO4 1.19 mM, 10 mM HEPES buffer solution pH7.3, and 0.1% BSA), and then it was incubated at 37° C. for one hour. […] A supernatant thereof was recovered, and an amount of insulin secreted was measured. The measurement of the insulin was performed in an enzyme-linked immunosorbent assay (ELISA), and an absorbance was measured at 450 nm (a sub-wavelength: 620 nm) after the addition of a substrate.
EC50 values thereof were calculated in the same manner as in Part 2, and the influence on the bioactivity caused by the addition of the partial peptide of the GA module were inspected in detail.
The analysis was performed using the following calculation formula.

[3] = Plasma stability of GLP-1 peptide complex (remaining rate in rat plasma, HPLC/MS); assay type: in vitro ADME, SD rats; conditions: for remaining at 8 h, 0.5 μmol/L / remaining at 48 h, 0.5 μmol/L: SD
Text: SD rats were anesthetized with diethyl ether, whole blood was collected and a plasma fraction was separated therefrom.

[4] = rat plasma, 0.5 μmol/L, 37° C., 8 hours, relative to 0 hour = 100%, read-out: Remaining rate in plasma after 8 hours (%)
[5] = rat plasma, 0.5 μmol/L, 37° C., 48 hours, relative to 0 hour = 100%, read-out: Remaining rate in plasma after 48 hours (%)

CC[C@H](C)[C@H](NC(=O)[C@H](C)NC(=O)CNC(=O)[C@H](Cc1ccccc1)NC(=O)[C@H](CC(N)=O)NC(=O)[C@H](CC(N)=O)NC(=O)[C@H](CO)NC(=O)[C@H](CO)NC(=O)[C@H](Cc1c[nH]cn1)NC(=O)[C@@H](NC(=O)[C@H](CC(C)C)NC(=O)[C@H](Cc1ccccc1)NC(=O)[C@H](CC(N)=O)NC(=O)[C@H](C)NC(=O)[C@H](CC(C)C)NC(=O)[C@H](CCCNC(=N)N)NC(=O)[C@H](CCC(N)=O)NC(=O)[C@@H](NC(=O)[C@H](C)NC(=O)[C@@H]1CSSC[C@H](NC(=O)[C@@H](N)CCCCN)C(=O)N[C@@H](CC(N)=O)C(=O)N[C@@H]([C@@H](C)O)C(=O)N[C@@H](C)C(=O)N[C@@H]([C@@H](C)O)C(=O)N1)[C@@H](C)O)C(C)C)C(=O)N[C@@H](CC(C)C)C(=O)N[C@@H](CO)C(=O)N[C@@H](CO)C(=O)N[C@H](C(=O)N[C@@H](CC(N)=O)C(=O)N[C@H](C(=O)NCC(=O)N[C@@H](CO)C(=O)N[C@@H](CC(N)=O)C(=O)N[C@H](C(=O)N[C@@H](Cc1ccc(O)cc1)C(N)=O)[C@@H](C)O)C(C)C)[C@@H](C)O [Comparative Example 16, Amylin(1-37)-NH2]
remaining at 0.5 h, 0.5 μmol/L ([1]; amylin, rat plasma, 0.5 μmol/L, 37° C., 0.5 hour, read-out: Remaining rate in plasma after 0.5 hour (%)): 43% | remaining at 2 h, 0.5 μmol/L ([1]; amylin, rat plasma, 0.5 μmol/L, 37° C., 2 hours, read-out: Remaining rate in plasma after 2 hours (%)): 15% | remaining at 8 h, 0.5 μmol/L ([1]; amylin, rat plasma, 0.5 μmol/L, 37° C., 8 hours, read-out: Remaining rate in plasma after 8 hours (%)): 0% | Remaining rate in plasma after 2 hours (%) ([1]; amylin, rat plasma, 0.5 μmol/L, 37° C., 2 hours): 15%

AKTVEGVKALIDEILAAKCNTATCATQRLANFLVHSSNNFGAILSSTNVGSNTY-NH2 (disulfide 19-24) [Example 30, GAm(28-44)-Amylin(1-37)-NH2]
remaining at 0.5 h, 0.5 μmol/L ([1]; rat, plasma): 88% | remaining at 2 h, 0.5 μmol/L ([1]; rat, plasma): 67% | remaining at 8 h, 0.5 μmol/L ([1]; rat, plasma): 9%

HSEGTFTSDVSSYLEGQAAKEFIAWLVKGVSDYYKNLINNAKTVEGVKALIDEILAALP-NH2 [Comparative Example 5, [Ser8]-GLP-1(7-35)-GAm(17-46)-NH2, reference compound]
EC50 [2]: > 1 nM | Insulin secretion capacity (activity) compared with native GLP-1, in words ([2]; MIN 6 cells, 30, 100, 300 or 1000 pM (FIG. 2, FIG. 3)): hardly detected; also recorded: remarkably decreased | remaining at 8 h, 0.5 μmol/L [3, 4]: 105% | remaining at 48 h, 0.5 μmol/L [3, 5]: 105% | Remaining rate in plasma after 48 hours (%) ([3]; rat plasma, 0.5 μmol/L, 37° C., 48 hours, relative to 0 hour = 100%): 105%

HSEGTFTSDVSSYLEGQAAKEFIAWLVKGAKTVEGVKALIDEILAA [Example 18, [Ser8]-GLP-1(7-35)-GAm(28-44)]
Insulin secretion capacity (% of control) [2]: 139% | remaining at 8 h, 0.5 μmol/L ([3]; rat, plasma): 99% | remaining at 48 h, 0.5 μmol/L ([3]; rat, plasma): 88%

HAEGTFTSDVSSYLEGQAAKEFIAWLVKGGPVKALIDEILAA-NH2 [Example 22, GLP-1(7-35)-Gly-Pro-GAm(34-44)-NH2]
Insulin secretion capacity (% of control) [2]: 99% | remaining at 8 h, 0.5 μmol/L ([3]; rat, plasma): 98% | remaining at 48 h, 0.5 μmol/L ([3]; rat, plasma): 94%

CC[C@H](C)[C@H](NC(=O)[C@H](Cc1ccccc1)NC(=O)[C@H](CCC(=O)O)NC(=O)[C@H](CCCCN)NC(=O)[C@H](C)NC(=O)[C@H](C)NC(=O)[C@H](CCC(N)=O)NC(=O)CNC(=O)[C@H](CCC(=O)O)NC(=O)[C@H](CC(C)C)NC(=O)[C@H](Cc1ccc(O)cc1)NC(=O)[C@H](CO)NC(=O)[C@H](CO)NC(=O)[C@@H](NC(=O)[C@H](CC(=O)O)NC(=O)[C@H](CO)NC(=O)[C@@H](NC(=O)[C@H](Cc1ccccc1)NC(=O)[C@@H](NC(=O)CNC(=O)[C@H](CCC(=O)O)NC(=O)[C@H](CO)NC(=O)[C@@H](N)Cc1c[nH]cn1)[C@@H](C)O)[C@@H](C)O)C(C)C)C(=O)N[C@@H](C)C(=O)N[C@@H](Cc1c[nH]c2ccccc12)C(=O)N[C@@H](CC(C)C)C(=O)N[C@H](C(=O)N[C@@H](CCCCN)C(=O)NCC(=O)N[C@@H](CC(C)C)C(=O)N[C@H](C(=O)N[C@@H](CC(=O)O)C(=O)N[C@@H](CCC(=O)O)C(=O)N[C@H](C(=O)N[C@@H](CC(C)C)C(=O)N[C@@H](C)C(=O)N[C@@H](C)C(=O)O)[C@@H](C)CC)[C@@H](C)CC)C(C)C [Example 20, [Ser8]-GLP-1(7-35)-GAm(37-44)]
Insulin secretion capacity (% of control) [2]: 98% | remaining at 48 h, 0.5 μmol/L [3, 5]: 79% | Remaining rate in plasma after 8 hours (%) ([3]; rat plasma, 0.5 μmol/L, 37° C., 8 hours, relative to 0 hour = 100%): 125%

HAEGTFTSDVSSYLEGQAAKEFIAWLVKGGPSGVKALIDEILAA-NH2 [Example 24, GLP-1(7-35)-Gly-Pro-Ser-GAm(33-44)-NH2]
Insulin secretion capacity (% of control) [2]: 123% | remaining at 8 h, 0.5 μmol/L ([3]; rat, plasma): 90% | remaining at 48 h, 0.5 μmol/L ([3]; rat, plasma): 40%

HSEGTFTSDVSSYLEGQAAKEFIAWLVKGVEGVKALIDEILAA-NH2 [Example 11, [Ser8]-GLP-1(7-35)-GAm(31-44)-NH2]
Insulin secretion capacity (% of control) [2]: 83% | remaining at 8 h, 0.5 μmol/L ([3]; rat, plasma): 99% | remaining at 48 h, 0.5 μmol/L ([3]; rat, plasma): 92%

HSEGTFTSDVSSYLEGQAAKEFIAWLVKGYKNLINNAKTVEGVKALIDEILAALP-NH2 [Comparative Example 6, [Ser8]-GLP-1(7-35)-GAm(21-46)-NH2, reference compound]
Insulin secretion capacity (% of control) [2]: 45% | remaining at 48 h, 0.5 μmol/L ([3]; rat, plasma): 84%

HSEGTFTSDVSSYLEGQAAKEFIAWLVKGTVEGVKALIDEIL-NH2 [Example 12, [Ser8]-GLP-1(7-35)-GAm(30-42)-NH2]
Insulin secretion capacity (% of control) [2]: 85% | remaining at 8 h, 0.5 μmol/L ([3]; rat, plasma): 105% | remaining at 48 h, 0.5 μmol/L ([3]; rat, plasma): 116%

HAEGTFTSDVSSYLEGQAAKEFIAWLVKGGPKALIDEILAA-NH2 [Example 21, GLP-1(7-35)-Gly-Pro-GAm(35-44)-NH2]
Insulin secretion capacity (% of control) [2]: 103% | remaining at 8 h, 0.5 μmol/L ([3]; rat, plasma): 86% | remaining at 48 h, 0.5 μmol/L ([3]; rat, plasma): 53%

HSEGTFTSDVSSYLEGQAAKEFIAWLVKGGVKALIDEILAA [Example 19, [Ser8]-GLP-1(7-35)-GAm(33-44)]
Insulin secretion capacity (% of control) [2]: 89% | remaining at 8 h, 0.5 μmol/L ([3]; rat, plasma): 114% | remaining at 48 h, 0.5 μmol/L ([3]; rat, plasma): 102%

HSEGTFTSDVSSYLEGQAAKEFIAWLVKGNAKTVEGVKALIDEILAALP-NH2 [Example 15, [Ser8]-GLP-1(7-35)-GAm(27-46)-NH2]
Insulin secretion capacity (% of control) [2]: 106% | remaining at 8 h, 0.5 μmol/L ([3]; rat, plasma): 111% | remaining at 48 h, 0.5 μmol/L ([3]; rat, plasma): 93%

HAEGTFTSDVSSYLEGQAAKEFIAWLVKGGVKALIDEILA-NH2 [Example 7, GLP-1(7-35)-GAm(33-43)-NH2]
Insulin secretion capacity (% of control) [2]: 105% | remaining at 8 h, 0.5 μmol/L ([3]; rat, plasma): 94% | remaining at 48 h, 0.5 μmol/L ([3]; rat, plasma): 87%

CC[C@H](C)[C@H](NC(=O)CNC(=O)[C@H](CCCCN)NC(=O)[C@@H](NC(=O)[C@H](CC(C)C)NC(=O)[C@H](Cc1c[nH]c2ccccc12)NC(=O)[C@H](C)NC(=O)[C@@H](NC(=O)[C@H](Cc1ccccc1)NC(=O)[C@H](CCC(=O)O)NC(=O)[C@H](CCCCN)NC(=O)[C@H](C)NC(=O)[C@H](C)NC(=O)[C@H](CCC(N)=O)NC(=O)CNC(=O)[C@H](CCC(=O)O)NC(=O)[C@H](CC(C)C)NC(=O)[C@H](Cc1ccc(O)cc1)NC(=O)[C@H](CO)NC(=O)[C@H](CO)NC(=O)[C@@H](NC(=O)[C@H](CC(=O)O)NC(=O)[C@H](CO)NC(=O)[C@@H](NC(=O)[C@H](Cc1ccccc1)NC(=O)[C@@H](NC(=O)CNC(=O)[C@H](CCC(=O)O)NC(=O)[C@H](C)NC(=O)[C@@H](N)Cc1c[nH]cn1)[C@@H](C)O)[C@@H](C)O)C(C)C)[C@@H](C)CC)C(C)C)C(=O)N[C@@H](CC(=O)O)C(=O)N[C@@H](CCC(=O)O)C(=O)N[C@H](C(=O)N[C@@H](CC(C)C)C(N)=O)[C@@H](C)CC [Example 5, GLP-1(7-35)-GAm(38-42)-NH2]
Insulin secretion capacity (% of control) [2]: 112% | remaining at 8 h, 0.5 μmol/L [3, 4]: 73% | remaining at 48 h, 0.5 μmol/L [3, 5]: 83%

HSEGTFTSDVSSYLEGQAAKEFIAWLVKGKALIDEILAA-NH2 [Example 4, [Ser8]-GLP-1(7-35)-GAm(35-44)-NH2]
Insulin secretion capacity (% of control) [2]: 115% | remaining at 8 h, 0.5 μmol/L ([3]; rat, plasma): 77% | remaining at 48 h, 0.5 μmol/L ([3]; rat, plasma): 117%

HSEGTFTSDVSSYLEGQAAKEFIAWLVKGINNAKTVEGVKALIDEILAALP-NH2 [Example 16, [Ser8]-GLP-1(7-35)-GAm(25-46)-NH2]
Insulin secretion capacity (% of control) [2]: 104% | remaining at 8 h, 0.5 μmol/L ([3]; rat, plasma): 102% | remaining at 48 h, 0.5 μmol/L ([3]; rat, plasma): 93%
